Test results published in PMC9176662, “Design, synthesis, molecular modeling and biological evaluation of novel Benzoxazole-Benzamide conjugates via a 2-Thioacetamido linker as potential anti-proliferative agents, VEGFR-2 inhibitors and apoptotic inducers” (Journal of Enzyme Inhibition and Medicinal Chemistry, 2022).

Tests used:
[1] = test system: WI-38 cells; test: Cytotoxicity against normal fibroblasts, SRB assay, WI-38; format: cell-based; conditions: normal human fibroblasts, 72 h, mean ± SD of three separate experiments
Excerpt: (§1) Several of these derivatives were reported as acting as competitive inhibitors of different tyrosine kinases, with potent cytotoxic activity against various cell lines[58]^,[59]. […] Thus, in this study a novel series of benzoxazole-benzamide conjugates was initially evaluated for their potential anti-cancer activity against colon cancer cell line (HCT-116), breast cancer cell line (MCF-7) and normal human fibroblasts (WI-38), using the Sulforhodamine B colorimetric (SRB) assay.
(§2) 2.1. Anti-proliferative activity against HCT-116 and MCF-7 human cancer cells lines.
(§3) The sulforhodamine B (SRB) assays were performed according to Skehan et al..
(§4) Briefly, exponentially growing cells were trypsinized, counted and seeded at the appropriate densities (5000 cells/100 μL/ well) into 96-well microtiter plates. Cells were incubated in a humidified atmosphere at 37 °C for 24 h. Then, the cells were exposed to the tested compounds at the desired concentrations (0.01, 0.1, 1, 10, and 100 μM) or to 1% dimethyl sulfoxide (DMSO) for 72 h. At the end of the treatment period, the media were removed, and the cells were fixed with 10% trichloroacetic acid at 4 °C for 1 h. Following, the cells were washed with tap water four times and incubated with SRB 0.4% for 30 min. Excess dye was removed by washing repeatedly with 1% (vol/vol) acetic acid. The protein-bound dye was dissolved in 10 mM Tris base solution for (optical density) OD determination at 510 nm using a Spectra Max plus Microplate Reader (Molecular Devices, CA). Cell viability was expressed relative to the untreated control cells. […]

[2] = test system: HCT-116 cells; test: Anti-proliferative activity, SRB assay, HCT-116; format: cell-based, human; conditions: for IC50: Homo sapiens, SRB assay, 72 h exposure, mean ± SD of three separate experiments; for HCT-116 SI (selectivity index): ratio of IC50 for normal cells (WI-38) to IC50 for HCT-116
Excerpt: as §1, §2, §3, §4

[3] = test system: MCF-7 cells; test: Anti-proliferative activity, SRB assay, MCF-7; format: cell-based, human; conditions: for IC50: Homo sapiens, SRB assay, 72 h exposure, mean ± SD of three separate experiments; for MCF-7 SI (selectivity index): ratio of IC50 for normal cells (WI-38) to IC50 for MCF-7
Excerpt: as §1, §2, §3, §4

[4] = molecular target: T1, VEGFR-2 Protein Kinase (Homo sapiens, UniProt P35968); test: VEGFR-2 inhibitory activity (HTScan VEGF Receptor-2 Kinase Assay Kit, ELISA); format: biochemical; conditions: mean of three individual experiments
T1 construct: It includes active VEGFR-2 kinase; purchased HTScan VEGF Receptor-2 Kinase Assay Kit
T1 sequence (P35968 20-1356): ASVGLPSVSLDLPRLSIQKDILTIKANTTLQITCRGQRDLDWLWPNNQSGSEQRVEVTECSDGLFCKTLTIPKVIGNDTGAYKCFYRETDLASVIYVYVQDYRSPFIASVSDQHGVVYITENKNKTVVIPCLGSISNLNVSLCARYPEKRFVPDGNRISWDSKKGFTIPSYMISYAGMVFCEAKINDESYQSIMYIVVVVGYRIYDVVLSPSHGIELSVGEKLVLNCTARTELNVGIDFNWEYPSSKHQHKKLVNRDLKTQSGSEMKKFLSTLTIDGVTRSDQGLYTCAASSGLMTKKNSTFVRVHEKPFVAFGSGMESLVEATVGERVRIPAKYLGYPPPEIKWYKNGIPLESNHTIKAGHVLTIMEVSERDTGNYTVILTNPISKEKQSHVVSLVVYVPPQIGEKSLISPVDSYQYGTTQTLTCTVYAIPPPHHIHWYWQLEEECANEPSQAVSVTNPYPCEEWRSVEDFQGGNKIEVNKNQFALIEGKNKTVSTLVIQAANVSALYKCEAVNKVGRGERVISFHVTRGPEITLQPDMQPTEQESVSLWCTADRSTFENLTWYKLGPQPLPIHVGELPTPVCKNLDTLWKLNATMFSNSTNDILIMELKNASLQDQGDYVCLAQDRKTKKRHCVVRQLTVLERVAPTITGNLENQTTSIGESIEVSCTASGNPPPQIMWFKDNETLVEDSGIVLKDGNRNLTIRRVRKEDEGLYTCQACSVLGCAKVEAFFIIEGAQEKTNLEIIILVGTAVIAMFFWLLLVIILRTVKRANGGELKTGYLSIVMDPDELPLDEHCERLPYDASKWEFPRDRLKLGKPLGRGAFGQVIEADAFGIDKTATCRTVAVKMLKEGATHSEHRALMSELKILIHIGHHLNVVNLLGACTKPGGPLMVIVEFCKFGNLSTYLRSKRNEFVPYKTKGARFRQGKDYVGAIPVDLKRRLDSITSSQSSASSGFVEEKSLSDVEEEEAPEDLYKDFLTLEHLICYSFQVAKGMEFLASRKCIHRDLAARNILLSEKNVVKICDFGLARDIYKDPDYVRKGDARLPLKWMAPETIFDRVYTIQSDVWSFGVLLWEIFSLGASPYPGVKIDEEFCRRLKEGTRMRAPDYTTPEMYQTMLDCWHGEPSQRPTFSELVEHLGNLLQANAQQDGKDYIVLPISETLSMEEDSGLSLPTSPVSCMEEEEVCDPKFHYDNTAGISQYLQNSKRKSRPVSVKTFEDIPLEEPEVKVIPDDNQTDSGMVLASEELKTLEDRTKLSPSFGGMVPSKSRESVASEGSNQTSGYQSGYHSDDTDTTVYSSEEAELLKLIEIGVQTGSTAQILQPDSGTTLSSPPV
Description: 2.2. VEGFR-2 Inhibitory activity
VEGFR-2 ELISA (Enzyme-Linked Immunosorbent Assay) kits (HTScan® VEGF Receptor-2 […]
phospho-tyrosine antibody) for detection of the phosphorylated form of the substrate peptide).
On a 96-well plate, a particular VEGFR-2 antibody was seeded and 100 μL of the normal solution or the tested compound tested was applied, incubated at room temperature for 2.5 h and washed. Then, 100 μL of the prepared biotin antibody was added, incubated for an additional 1 h at room temperature and washed. Following, 100 μL of streptavidin solution was added at room temperature, incubated for 45 minutes and then, 100 μL of TMB Substrate solution was applied and incubated at room temperature for 30 minutes. Finally, 50 μL stop solution was added and the absorption was measured at 450 nm instantly. The standard curve, the X -axis concentrations, and the Y-axis absorbance were drawn. […]

Structure (SMILES): O=C(CSc1nc2ccccc2o1)Nc1ccc(C(=O)Nc2ccccc2)cc1 [Compound 2]
- IC50 [1]: 56.7 ± 0.36 µM
- IC50 ([2]; HCT-116, 72 h): 18.5 ± 0.014 µM
- HCT-116 SI (selectivity index) [2]: 3.0
- IC50 ([3]; MCF7, 72 h): 11.7 ± 0.014 µM
- MCF-7 SI (selectivity index) [3]: 4.8
- melting point: 250 to 252 °C

Structure (SMILES): O=C(CSc1nc2ccccc2o1)Nc1ccc(C(=O)Nc2ccc(Cl)cc2)cc1 [Compound 3]
- IC50 [1]: 59.3 ± 0.45 µM
- IC50 ([2]; HCT-116, 72 h): 24.2 ± 0.019 µM
- HCT-116 SI (selectivity index) [2]: 2.4
- IC50 ([3]; MCF7, 72 h): 22.7 ± 0.008 µM
- MCF-7 SI (selectivity index) [3]: 2.6
- melting point: 238 to 240 °C

Structure (SMILES): COc1ccc(NC(=O)c2ccc(NC(=O)CSc3nc4ccccc4o3)cc2)cc1 [Compound 4]
- IC50 [1]: 51.5 ± 0.4 µM
- IC50 ([2]; HCT-116, 72 h): 23.2 ± 0.012 µM
- HCT-116 SI (selectivity index) [2]: 2.2
- IC50 ([3]; MCF7, 72 h): 23.6 ± 0.015 µM
- MCF-7 SI (selectivity index) [3]: 2.2
- melting point: 260 to 262 °C

Structure (SMILES): Cc1ccc2oc(SCC(=O)Nc3ccc(C(=O)NC4CCCCC4)cc3)nc2c1 [Compound 5]
- IC50 [1]: 85.4 ± 0.55 µM
- IC50 ([2]; HCT-116, 72 h): 20.9 ± 0.025 µM
- HCT-116 SI (selectivity index) [2]: 4.0
- IC50 ([3]; MCF7, 72 h): 12.4 ± 0.007 µM
- MCF-7 SI (selectivity index) [3]: 6.9
- melting point: 256 to 258 °C

Structure (SMILES): Cc1ccc2oc(SCC(=O)Nc3ccc(C(=O)Nc4ccccc4)cc3)nc2c1 [Compound 6]
- IC50 [1]: 124.6 ± 0.7 µM
- IC50 ([2]; HCT-116, 72 h): 30.7 ± 0.011 µM
- HCT-116 SI (selectivity index) [2]: 4.0
- IC50 ([3]; MCF7, 72 h): 19.1 ± 0.006 µM
- MCF-7 SI (selectivity index) [3]: 6.5
- melting point: 240 to 242 °C

Structure (SMILES): Cc1ccc2oc(SCC(=O)Nc3ccc(C(=O)Nc4ccc(Cl)cc4)cc3)nc2c1 [Compound 7]
- IC50 [1]: 128.2 ± 0.75 µM
- IC50 ([2]; HCT-116, 72 h): 32 ± 0.002 µM
- HCT-116 SI (selectivity index) [2]: 4.0
- IC50 ([3]; MCF7, 72 h): 24 ± 0.011 µM
- MCF-7 SI (selectivity index) [3]: 5.3
- melting point: 265 to 267 °C

Structure (SMILES): COc1ccc(NC(=O)c2ccc(NC(=O)CSc3nc4cc(C)ccc4o3)cc2)cc1 [Compound 8]
- IC50 [1]: 135.4 ± 0.85 µM
- IC50 ([2]; HCT-116, 72 h): 28.8 ± 0.01 µM
- HCT-116 SI (selectivity index) [2]: 4.7
- IC50 ([3]; MCF7, 72 h): 22.3 ± 0.004 µM
- MCF-7 SI (selectivity index) [3]: 6.0
- melting point: 258 to 260 °C

Structure (SMILES): O=C(CSc1nc2cc(Cl)ccc2o1)Nc1ccc(C(=O)NC2CCCCC2)cc1 [Compound 9]
- IC50 [1]: 74.6 ± 0.53 µM
- IC50 ([2]; HCT-116, 72 h): 17.1 ± 0.008 µM
- HCT-116 SI (selectivity index) [2]: 4.4
- IC50 ([3]; MCF7, 72 h): 12.3 ± 0.008 µM
- MCF-7 SI (selectivity index) [3]: 6.0
- IC50 [4]: 0.649 ± 0.008 µM
- melting point: 260 to 262 °C

Structure (SMILES): O=C(CSc1nc2cc(Cl)ccc2o1)Nc1ccc(C(=O)Nc2ccccc2)cc1 [Compound 10]
- IC50 [1]: 125.5 ± 0.72 µM
- IC50 ([2]; HCT-116, 72 h): 16.7 ± 0.012 µM
- HCT-116 SI (selectivity index) [2]: 7.5
- IC50 ([3]; MCF7, 72 h): 16.1 ± 0.011 µM
- MCF-7 SI (selectivity index) [3]: 7.8
- IC50 [4]: 0.704 ± 0.009 µM
- melting point: 245 to 247 °C

Structure (SMILES): COc1ccc(NC(=O)c2ccc(NC(=O)CSc3nc4cc(Cl)ccc4o3)cc2)cc1 [Compound 12]
- IC50 [1]: 126.2 ± 0.75 µM
- IC50 ([2]; HCT-116, 72 h): 10.4 ± 0.01 µM
- HCT-116 SI (selectivity index) [2]: 12.1
- IC50 ([3]; MCF7, 72 h): 9.4 ± 0.016 µM
- MCF-7 SI (selectivity index) [3]: 13.4
- IC50 [4]: 0.385 ± 0.005 µM
- melting point: 266 to 268 °C

Structure (SMILES): O=C(CSc1nc2ccccc2o1)Nc1ccc(C(=O)NNC(=O)c2ccccc2)cc1 [Compound 13]
- IC50 [1]: 91.3 ± 0.6 µM
- IC50 ([2]; HCT-116, 72 h): 9.1 ± 0.005 µM
- HCT-116 SI (selectivity index) [2]: 10.0
- IC50 ([3]; MCF7, 72 h): 9 ± 0.005 µM
- MCF-7 SI (selectivity index) [3]: 10.1
- melting point: 270 to 272 °C

Structure (SMILES): Cc1ccc2oc(SCC(=O)Nc3ccc(C(=O)NNC(=O)c4ccccc4)cc3)nc2c1 [Compound 14]
- IC50 [1]: 96.5 ± 0.65 µM
- IC50 ([2]; HCT-116, 72 h): 9.7 ± 0.013 µM
- HCT-116 SI (selectivity index) [2]: 9.9
- IC50 ([3]; MCF7, 72 h): 9.5 ± 0.009 µM
- MCF-7 SI (selectivity index) [3]: 10.1
- melting point: 250 to 252 °C

Structure (SMILES): O=C(CSc1nc2cc(Cl)ccc2o1)Nc1ccc(C(=O)NNC(=O)c2ccccc2)cc1 [Compound 15]
- IC50 [1]: 131.5 ± 0.8 µM
- IC50 ([2]; HCT-116, 72 h): 12.9 ± 0.014 µM
- HCT-116 SI (selectivity index) [2]: 10.2
- IC50 ([3]; MCF7, 72 h): 15.3 ± 0.01 µM
- MCF-7 SI (selectivity index) [3]: 8.6
- IC50 [4]: 0.597 ± 0.007 µM
- melting point: 277 to 279 °C

Structure (SMILES): CNC(=O)c1cc(Oc2ccc(NC(=O)Nc3ccc(Cl)c(C(F)(F)F)c3)cc2)ccn1 [Sorafenib, reference compound]
- IC50 ([2]; HCT-116): 11.6 ± 0.012 µM
- IC50 ([3]; MCF7): 10.5 ± 0.014 µM
